For 33 molecules, IC50 results are on record in ChEMBL document CHEMBL5335773, “Synthesis and structure-activity relationship of new nicotinamide phosphoribosyltransferase inhibitors with antitumor activity on solid and haematological cancer” (Eur J Med Chem, 2023).

The test system of assay [1] is MIA PaCa-2. Description: cells. Particulars: Homo sapiens, MIA PaCa-2, 72 h.
The test system of assay [2] is MIA PaCa-2. Description: cells. Particulars: Homo sapiens, MIA PaCa-2, 24 h.
The next assay has as its system RPMI-8226. The experiment in a line: Cytotoxicity against human RPMI-8226 cells assessed as inhibition of cell viability at 72 hrs by SRB assay. Format: functional, cell-based. As to conditions: RPMI-8226, 72 h.
The next assay deals with NAMALVA. The experiment in a line: Cytotoxicity against human NAMALVA cells assessed as inhibition of cell viability at 72 hrs by SRB assay. The format is functional, cell-based.
A further assay concerns ML-2. The experiment in a line: Cytotoxicity against human ML-2 cells assessed as inhibition of cell viability at 72 hrs by SRB assay. The format is functional, cell-based. Particulars: ML-2, 72 h.
The target of assay [3] is Nicotinamide phosphoribosyltransferase (Homo sapiens, UniProt P43490). Description: Inhibition of full-length recombinant human NAMPT (2 to 491 residues) expressed in Escherichia coli using NAM as substrate preincubated for 5 mins followed by substrate addition measured after 15 mins by fluorescence based assay.
Nicotinamide phosphoribosyltransferase, sequence (P43490 whole entry, the tested form may be a part): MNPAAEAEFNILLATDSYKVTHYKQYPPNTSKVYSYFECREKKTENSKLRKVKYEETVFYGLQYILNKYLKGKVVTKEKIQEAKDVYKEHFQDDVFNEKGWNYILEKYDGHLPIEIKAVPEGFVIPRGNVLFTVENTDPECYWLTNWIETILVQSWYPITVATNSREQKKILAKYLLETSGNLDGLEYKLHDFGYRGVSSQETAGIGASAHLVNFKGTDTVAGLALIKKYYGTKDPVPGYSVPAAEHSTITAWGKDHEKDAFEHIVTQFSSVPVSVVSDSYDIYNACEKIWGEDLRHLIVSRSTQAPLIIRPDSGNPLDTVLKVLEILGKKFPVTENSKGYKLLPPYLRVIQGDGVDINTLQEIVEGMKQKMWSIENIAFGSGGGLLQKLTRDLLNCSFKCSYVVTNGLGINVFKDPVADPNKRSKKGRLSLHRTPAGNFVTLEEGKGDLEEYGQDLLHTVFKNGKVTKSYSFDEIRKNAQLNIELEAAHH
A further assay concerns NB-4. Description: Cytotoxicity against human NB4 cells assessed as inhibition of cell viability at 72 hrs by SRB assay. The format is functional, cell-based. Particulars: NB-4, 72 h.
The subject of a further assay is Jurkat. The experiment in a line: Cytotoxicity against human Jurkat cells assessed as inhibition of cell viability at 72 hrs by SRB assay. The format is functional, cell-based.

Consider `N#C/N=C(\NCCCCCCC(=O)N(Cc1ccco1)C1CCCC1)N1Cc2ccccc2C1`, for which, in the assay with MIA PaCa-2 [1], the 50% inhibitory concentration (IC50) is > 1000 nM. With `O=C(CCCCCCCNC(=S)Nc1cccnc1)n1cccc1`, the IC50 in the assay with MIA PaCa-2 [1] turned out to be 854 nM. For the molecule `N#C/N=C(\NCCCCCCC(=O)N(CCCN1CCCC1)Cc1ccco1)Nc1ccncc1`, the half-inhibitory concentration (IC50) with MIA PaCa-2 [1] is 4.5 nM; with MIA PaCa-2 [2] it was 2 nM. `O=C(CCCCCCCNC(=S)Nc1cccnc1)NCc1ccco1`: the 50% inhibitory concentration (IC50) in the assay on MIA PaCa-2 [1] is > 1000 nM. Regarding `N#C/N=C(\NCCCCCC(=O)N(CCCN1CCOCC1)Cc1ccco1)Nc1ccncc1`, the figures for the IC50 in the assay with MIA PaCa-2 [1] and in the assay on MIA PaCa-2 [2] were 16.3 nM and 11.2 nM, respectively. Consider `N#C/N=C(\NCCCCCCCC(=O)NCc1ccco1)Nc1ccncc1`, for which the IC50 in the assay on MIA PaCa-2 [1] is > 1000 nM. `N#C/N=C(\NCCCCCCn1cc(CN(CCCN2CCOCC2)Cc2ccco2)nn1)Nc1ccncc1`: the IC50 was determined as 25.8 nM in the assay with MIA PaCa-2 [1] and 2.36 nM with MIA PaCa-2 [2].

For `N#C/N=C(\NCCCCCC(=O)N(Cc1ccco1)C1CCCC1)Nc1ccncc1`, the IC50 in the assay on MIA PaCa-2 [1] was 3 nM; in the assay with MIA PaCa-2 [2], 0.2 nM; with RPMI-8226 it was 1.9 nM; with NAMALVA, 1.77 nM; in the assay with ML-2 it was 0.36 nM. Taken in the same sequence, the figures for `N#C/N=C(\NCCCCCCC(=O)N(Cc1ccco1)c1ccc([N+](=O)[O-])cc1)Nc1ccncc1` were 2.1 nM, 0.14 nM, 2.13 nM, 1.39 nM and 0.32 nM. `N#C/N=C(\NCCCCCCCCNC(=O)c1cc2ccccc2[nH]1)Nc1cccnc1` registered an IC50 in the assay with MIA PaCa-2 [1] of 81 nM. Same read-out and setting: the figure for `N#C/N=C(\NCCCCC1CCN(C(=O)c2cc3ccccc3[nH]2)CC1)Nc1cccnc1` is 113 nM; for `N#C/N=C(\NCCCCCCC(=O)N(Cc1ccco1)C1CCCC1)Nc1ccccc1` it is > 1000 nM; for `COc1ccc2[nH]c(C(=O)N3CCC(CCCCn4cc(-c5cccnc5)nn4)CC3)cc2c1` it is 860 nM.

As for `N#C/N=C(\NCCCCCCS(=O)(=O)N(Cc1ccco1)C1CCCC1)Nc1ccc(N=[N+]=[N-])cc1`, 1000 nM corresponded to half-maximal inhibition with MIA PaCa-2 [1] (IC50). For the molecule `N#C/N=C(\NCCCCCCS(=O)(=O)N(Cc1ccco1)C1CCCC1)Nc1ccccc1`, the IC50 with MIA PaCa-2 [1] was determined as 176 nM; with MIA PaCa-2 [2], 4.7 nM.

`O=C(CCCCCCCn1cc(-c2cccnc2)nn1)n1cccc1`: in the assay on MIA PaCa-2 [1], inhibition was half-maximal at 494 nM (IC50). Consider `O=C(NCc1ccco1)c1ccc(NC(=O)N2Cc3ccccc3C2)cc1`, for which, in the assay with MIA PaCa-2 [1], the IC50 was > 1000 nM. Same read-out and setting: the figure for `CCOC(=O)c1ccc(N/C(=N/C#N)NCCCCCCS(=O)(=O)N(Cc2ccco2)C2CCCC2)cc1` is 738 nM; for `O=C(CCCCCCCn1cc(-c2cccnc2)nn1)NCc1ccco1` it is > 1000 nM; for `O=C(NCCCCCCCCn1cc(-c2cccnc2)nn1)c1cc2ccccc2[nH]1` it is 549 nM. With `N#C/N=C(\NCCCCCCC(=O)N(CCCN1CCOCC1)Cc1ccco1)Nc1ccncc1`, the IC50 was found to be 3 nM in the assay on MIA PaCa-2 [1] and 1.43 nM in the assay on MIA PaCa-2 [2].

On to `O=S(=O)(CCCCCCNC(=S)Nc1cccnc1)N(Cc1ccco1)C1CCCC1`, for which the IC50 in the assay on MIA PaCa-2 [1] came out at 16.4 nM; in assay [3] it was 69.1 nM; in the assay with MIA PaCa-2 [2], 0.43 nM; in the assay with RPMI-8226, 20.1 nM; in the assay on NAMALVA, 4.23 nM; in the assay with ML-2, 3.1 nM. Regarding `O=C(c1cc2ccccc2[nH]1)N1CCC(CCCCNC(=S)Nc2cccnc2)CC1`, the IC50 in the assay with MIA PaCa-2 [1] is > 1000 nM. The same measure, in the same setting: as for `O=C(c1cc2ccccc2[nH]1)N1CCC(CCCCn2cc(-c3cccnc3)nn2)CC1`, the figure is 727 nM; as for `O=C(Nc1ccc(C(=O)N(Cc2ccco2)C2CCCC2)cc1)N1Cc2ccccc2C1`, > 1000 nM.

Consider `N#C/N=C(\NCCCCCCC(=O)N(Cc1ccco1)c1ccc(Cl)cc1)Nc1ccncc1`, for which the IC50 with MIA PaCa-2 [1] was 1.7 nM; with MIA PaCa-2 [2], 0.17 nM. Taken in the same sequence, the figures for `N#C/N=C(\NCCCCCCS(=O)(=O)N(CCCN1CCOCC1)Cc1ccco1)Nc1ccncc1` were 2.26 nM and 1.5 nM. Consider `N#C/N=C(\NCCCCCCC(=O)N(CCCN1CCOCC1)Cc1ccco1)N1Cc2ccccc2C1`, for which the IC50 in the assay on MIA PaCa-2 [1] is > 1000 nM. For `O=C(/C=C/c1cccnc1)NCCCCC1CCN(C(=O)c2ccccc2)CC1` [DAPORINAD], the IC50 stood at 2.4 nM in the assay with MIA PaCa-2 [1]; 0.34 nM with MIA PaCa-2 [2]; 0.76 nM in the assay on RPMI-8226; 2 nM in the assay with NB-4; 0.37 nM in the assay on NAMALVA; 0.73 nM in the assay with Jurkat. Moreover, the IC50 with ML-2 turned out to be 0.24 nM.

With `N#C/N=C(\NCCCCCC(=O)N(Cc1ccco1)c1ccc(Cl)cc1)Nc1ccncc1`, the IC50 in the assay on MIA PaCa-2 [1] amounted to 6.3 nM; in the assay with MIA PaCa-2 [2], 0.5 nM. In turn, `O=C(NCCCCCCCCNC(=S)Nc1cccnc1)c1cc2ccccc2[nH]1` showed an IC50 in the assay on MIA PaCa-2 [1] of 605 nM.

As for `N#C/N=C(\NCCCCCCC(=O)N(Cc1ccc(Cl)cc1)Cc1ccco1)N1Cc2ccccc2C1`, the IC50 in the assay on MIA PaCa-2 [1] was > 1000 nM.

`O=C(CCCCCCNC(=S)Nc1cccnc1)N(Cc1ccco1)C1CCCC1` returned an IC50 in the assay on MIA PaCa-2 [1] of 153 nM.
